In patent publication US8106055B2, “Substituted amide compounds” (Gruenenthal GmbH, priority 2007, dated 2012):

Key:
[1] = biological target: T1, serotonin (5-HT) reuptake (Rattus norvegicus, UniProt P31652); assay: Inhibition of serotonin (5HT) reuptake in synaptosomes from rat brain; type: biochemical; details: for 5-HT (inhibition of reuptake of serotonin, % inhibition): test concentration of 10 μM
T1 construct: synaptosomes are freshly isolated from areas of the rat brain; from tissue; host or cells: rat brain synaptosomes (P2 fraction)
How it was run: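 Compounds screened at 10 μM and reported as percent inhibition of serotonin uptake. Uptake measured in a freshly prepared P2 synaptosomal fraction from rat brain.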

[2] = biological target: T2, human bradykinin 1 receptor (B1R) (Homo sapiens, UniProt P46663); assay: Functional investigation on the human bradykinin 1 receptor (B1R), Ca2+ FLIPR assay in CHO K1 hB1R cells; type: cell-based; details: B1R antagonism human; test substance 10 μM; Ca2+ FLIPR, CHO K1 hB1R cells
T2 construct: expressed in transfected cells; host or cells: CHO K1 cells
T2 sequence (P46663 1-353): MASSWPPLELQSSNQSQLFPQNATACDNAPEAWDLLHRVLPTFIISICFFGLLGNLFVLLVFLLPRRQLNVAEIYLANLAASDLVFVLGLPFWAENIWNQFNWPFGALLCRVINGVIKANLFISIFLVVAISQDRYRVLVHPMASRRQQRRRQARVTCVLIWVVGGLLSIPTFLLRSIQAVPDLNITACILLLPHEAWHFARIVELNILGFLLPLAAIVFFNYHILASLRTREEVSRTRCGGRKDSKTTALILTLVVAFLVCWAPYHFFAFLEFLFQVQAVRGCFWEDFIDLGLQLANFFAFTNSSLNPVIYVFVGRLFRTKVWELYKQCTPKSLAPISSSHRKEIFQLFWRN
How it was run: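 Peak Ca2+-dependent fluorescence in B1R-transfected CHO K1 cells measures antagonism of an EC80 agonist challenge given 10-20 min after compound. Agonist is Lys-Des-Arg9-bradykinin for human, Des-Arg9-bradykinin for rat receptor.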

T1 sequence (P31652 whole entry): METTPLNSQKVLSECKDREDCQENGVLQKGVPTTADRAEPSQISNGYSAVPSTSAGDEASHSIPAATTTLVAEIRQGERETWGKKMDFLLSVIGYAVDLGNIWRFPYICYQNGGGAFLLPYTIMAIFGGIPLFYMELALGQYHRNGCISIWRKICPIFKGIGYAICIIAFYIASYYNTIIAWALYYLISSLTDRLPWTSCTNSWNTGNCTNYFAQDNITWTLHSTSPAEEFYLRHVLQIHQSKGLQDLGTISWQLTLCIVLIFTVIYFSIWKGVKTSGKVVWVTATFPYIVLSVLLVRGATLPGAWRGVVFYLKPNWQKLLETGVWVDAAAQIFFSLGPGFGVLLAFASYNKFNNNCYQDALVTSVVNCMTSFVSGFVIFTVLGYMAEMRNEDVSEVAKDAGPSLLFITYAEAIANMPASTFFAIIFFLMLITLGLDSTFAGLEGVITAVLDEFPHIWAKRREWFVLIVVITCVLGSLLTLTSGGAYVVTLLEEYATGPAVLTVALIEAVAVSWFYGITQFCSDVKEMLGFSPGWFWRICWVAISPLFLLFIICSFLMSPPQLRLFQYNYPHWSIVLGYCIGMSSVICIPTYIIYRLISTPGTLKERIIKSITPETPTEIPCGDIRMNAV

CN(CCOCC(=O)NC1CCC(C(c2ccccc2)N2CCCC2)CC1)S(=O)(=O)c1c(Cl)cc(Cl)cc1Cl (centres unmarked) [Example 606, 2-{2-[methyl-(2,4,6-trichlorobenzenesulfonyl)-amino]-ethoxy}-N-[4-(phenylpyrrolidin-1-yl-methyl)-cyclohexyl]-acetamide]
inhibition at 10 µM ([1]; Table 2, test concentration 10 μM, read-out: 5-HT reuptake): 85% | B1R Ant. h [10 μM] % Inhibition [2]: 77%

CN(C)C(c1ccc(F)cc1)C1CCC(CNC(=O)COCC2CCCN2S(=O)(=O)c2ccc(Cl)c(Cl)c2)CC1 (centres unmarked) [Example 267]
5-HT (inhibition of reuptake of serotonin, % inhibition) [1]: 94% | B1R Ant. h [10 μM] % Inhibition [2]: 68%

Cc1ccc(S(=O)(=O)N(C)CCOCC(=O)NCCC2CCC(C(c3cccc(F)c3)N(C)C)CC2)cc1 (centres unmarked) [Example 240]
5-HT (inhibition of reuptake of serotonin, % inhibition) [1]: 87% | B1R Ant. h [10 μM] % Inhibition [2]: 2%

Cc1ccc(S(=O)(=O)N(C)CCOCC(=O)NC2CCC(C(c3cccc(F)c3)N(C)C)CC2)cc1 (centres unmarked) [Example 226]
5-HT (inhibition of reuptake of serotonin, % inhibition) [1]: 91% | B1R Ant. h [10 μM] % Inhibition [2]: −4%
